Measured values published in PubChem BioAssay AID330 (DTP/NCI, 2004).
“And” between values parts separate entries of the source, which are not always exact repeats. Equal values may be shown once. Inconclusive results and toxic doses are left out. How the source made its calls: active means survival T/C of 150% or more; inactive means T/C below 125% in these data.

Tested on: P388 leukemia ip, CD2F1 mice, survival T/C
Assay: NCI In Vivo Anticancer Drug Screen. Data for tumor model P388 Leukemia (intraperitoneal) in CD2F1 (CDF1) mice
Conditions: endpoint: median survival time, higher = longer survival
How it was run: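 Mice carrying the transplanted tumor received test compound or vehicle. Survival was recorded in each group, and the value is the treated-group measurement divided by that of the vehicle-treated control group.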

[1] = dose: 50.0 mg/kg/injection, schedule: Q01DX009 (ip), vehicle: saline with Tween-80
[2] = dose: 100.0 mg/kg/injection, schedule: Q01DX009 (ip), vehicle: saline with Tween-80
[3] = dose: 200.0 mg/kg/injection, schedule: Q01DX009 (ip), vehicle: saline with Tween-80
[4] = dose: 400.0 mg/kg/injection, schedule: Q01DX009 (ip), vehicle: saline with Tween-80
[5] = dose: 60.0 mg/kg/injection, schedule: Q01DX005 (ip), vehicle: Klucel (hydroxypropylcellulose) (HPC)
[6] = dose: 120.0 mg/kg/injection, schedule: Q01DX005 (ip), vehicle: Klucel (hydroxypropylcellulose) (HPC)
[7] = dose: 240.0 mg/kg/injection, schedule: Q01DX005 (ip), vehicle: Klucel (hydroxypropylcellulose) (HPC)
[8] = dose: 50.0 mg/kg/injection, schedule: Q01DX009 (ip), vehicle: Klucel (hydroxypropylcellulose) (HPC)
[9] = dose: 100.0 mg/kg/injection, schedule: Q01DX009 (ip), vehicle: Klucel (hydroxypropylcellulose) (HPC)
[10] = dose: 200.0 mg/kg/injection, schedule: Q01DX009 (ip), vehicle: Klucel (hydroxypropylcellulose) (HPC)
[11] = dose: 50.0 mg/kg/injection, schedule: Q01DX005 (ip), vehicle: Klucel (hydroxypropylcellulose) (HPC)
[12] = dose: 100.0 mg/kg/injection, schedule: Q01DX005 (ip), vehicle: Klucel (hydroxypropylcellulose) (HPC)
[13] = dose: 200.0 mg/kg/injection, schedule: Q01DX005 (ip), vehicle: Klucel (hydroxypropylcellulose) (HPC)
[14] = dose: 60.0 mg/kg/injection, schedule: Q01DX005 (ip), vehicle: saline with Tween-80
[15] = dose: 120.0 mg/kg/injection, schedule: Q01DX005 (ip), vehicle: saline with Tween-80
[16] = dose: 240.0 mg/kg/injection, schedule: Q01DX005 (ip), vehicle: saline with Tween-80
[17] = dose: 6.25 mg/kg/injection, schedule: Q01DX005 (ip), vehicle: saline
[18] = dose: 12.5 mg/kg/injection, schedule: Q01DX005 (ip), vehicle: saline
[19] = dose: 25.0 mg/kg/injection, schedule: Q01DX005 (ip), vehicle: saline
[20] = dose: 50.0 mg/kg/injection, schedule: Q01DX005 (ip), vehicle: saline with Tween-80
[21] = dose: 100.0 mg/kg/injection, schedule: Q01DX005 (ip), vehicle: saline with Tween-80
[22] = dose: 12.5 mg/kg/injection, schedule: Q01DX009 (ip), vehicle: Klucel (hydroxypropylcellulose) (HPC)
[23] = dose: 25.0 mg/kg/injection, schedule: Q01DX009 (ip), vehicle: Klucel (hydroxypropylcellulose) (HPC)

Measured: T/C

COc1cc(C/C(=C\c2cc(OC)c(OC)c(OC)c2)[N+](=O)[O-])ccc1OCc1ccccc1
inactive: dose: 50.0 mg/kg/injection, schedule: Q01DX001 (ip), vehicle: Klucel (hydroxypropylcellulose) (HPC) 93 % of control | dose: 100.0 mg/kg/injection, schedule: Q01DX001 (ip), vehicle: Klucel (hydroxypropylcellulose) (HPC) 94 % of control

Cn1c(=O)oc2ccc(Br)cc21
inactive: dose: 100.0 mg/kg/injection, schedule: Q04DX002 (ip), vehicle: Klucel (hydroxypropylcellulose) (HPC) 104 % of control | dose: 200.0 mg/kg/injection, schedule: Q04DX002 (ip), vehicle: Klucel (hydroxypropylcellulose) (HPC) 104 % of control | dose: 400.0 mg/kg/injection, schedule: Q04DX002 (ip), vehicle: Klucel (hydroxypropylcellulose) (HPC) 100 % of control

CCC(C)C[c-]1[c-][c-][c-][c-]1.CCC(C)C[c-]1[c-][c-][c-][c-]1.[Cl][Zr][Cl] (stereo unspecified)
inactive: [1] 90 % of control | [2] 88 % of control

CCCCOCC(=O)OCCCC
inactive: [2] 109 % of control | dose: 100.0 mg/kg/injection, schedule: Q04DX003 (ip), vehicle: saline with Tween-80 110 % of control | [3] 118 % of control | dose: 200.0 mg/kg/injection, schedule: Q04DX003 (ip), vehicle: saline with Tween-80 115 % of control | [4] 95 % of control | dose: 400.0 mg/kg/injection, schedule: Q04DX003 (ip), vehicle: saline with Tween-80 100 % of control

C=C(C#N)N(C)c1ccccc1
inactive: dose: 3.12 mg/kg/injection, schedule: Q01DX005 (ip), vehicle: Klucel (hydroxypropylcellulose) (HPC) 94 % of control | dose: 6.25 mg/kg/injection, schedule: Q01DX005 (ip), vehicle: Klucel (hydroxypropylcellulose) (HPC) 111 % of control | dose: 12.5 mg/kg/injection, schedule: Q01DX005 (ip), vehicle: Klucel (hydroxypropylcellulose) (HPC) 94 % of control

CCOc1c(N=Nc2ccc([N+](=O)[O-])cc2)c(C)nn1C(N)=S
inactive: [5] 93 % of control | [6] 95 % of control | [7] 98 % of control

COC(=O)c1ccc(C(=O)OC)c2nc3ccccc3nc12
inactive: [5] 97 % of control | [6] 100 % of control

CC(C)OS(=O)(=O)c1ccc([N+](=O)[O-])cc1
inactive: dose: 50.0 mg/kg/injection, schedule: Q01DX009 (ip), vehicle: saline 94 % of control | dose: 100.0 mg/kg/injection, schedule: Q01DX009 (ip), vehicle: saline 100 % of control | dose: 200.0 mg/kg/injection, schedule: Q01DX009 (ip), vehicle: saline 105 % of control

CSc1ccccc1N1C(=O)CSC1=S
inactive: [8] 108 % of control | [9] 96 % of control | [10] 89 % of control

COc1ccc2c(c1)OC(C)(C)C(c1ccccc1)C2c1ccc(OCCBr)c([N+](=O)[O-])c1 (stereo unspecified)
inactive: [11] 101 % of control | [12] 105 % of control | [13] 97 % of control

COc1cc(C2C(C)=COc3cc4c(cc32)OCO4)cc(OC)c1OC (stereo unspecified)
inactive: [14] 93 % of control | [15] 100 % of control | [16] 93 % of control

Nc1cc(Cl)nc(N)n1
inactive: dose: 25.0 mg/kg/injection, schedule: Q01DX009 (ip), vehicle: saline with Tween-80 96 % of control | [1] 97 % of control | [2] 101 % of control | [3] 105 % of control | [4] 100 % of control

COC(=O)CC1(C(=O)OC)C2=C(CCSC2)N2CCCC21 (stereo unspecified)
inactive: dose: 3.75 mg/kg/injection, schedule: Q01DX009 (ip), vehicle: Klucel (hydroxypropylcellulose) (HPC) 97 % of control | dose: 7.5 mg/kg/injection, schedule: Q01DX009 (ip), vehicle: Klucel (hydroxypropylcellulose) (HPC) 97 % of control | dose: 15.0 mg/kg/injection, schedule: Q01DX009 (ip), vehicle: Klucel (hydroxypropylcellulose) (HPC) 100 % of control | dose: 30.0 mg/kg/injection, schedule: Q01DX009 (ip), vehicle: Klucel (hydroxypropylcellulose) (HPC) 100 % of control

CCOc1ccc2nc(NN=O)sc2c1
inactive: dose: 1.56 mg/kg/injection, schedule: Q01DX009 (ip), vehicle: water 100 % of control | dose: 3.12 mg/kg/injection, schedule: Q01DX009 (ip), vehicle: water 100 % of control and 95 % of control | dose: 6.25 mg/kg/injection, schedule: Q01DX009 (ip), vehicle: water 101 % of control and 98 % of control | dose: 12.5 mg/kg/injection, schedule: Q01DX009 (ip), vehicle: water 100 % of control and 104 % of control | dose: 25.0 mg/kg/injection, schedule: Q01DX009 (ip), vehicle: water 100 % of control and 101 % of control | dose: 50.0 mg/kg/injection, schedule: Q01DX009 (ip), vehicle: water 104 % of control

Cc1cccc(Nc2ncnc3nc[nH]c23)c1
inactive: [11] 100 % of control | [12] 91 % of control | [13] 94 % of control

CC(ON)C(=O)O (stereo unspecified)
inactive: [17] 96 % of control | [18] 102 % of control | [19] 102 % of control | dose: 50.0 mg/kg/injection, schedule: Q01DX005 (ip), vehicle: saline 99 % of control

CCCCCNc1ncnc2[nH]ncc12
inactive: [20] 96 % of control | [21] 102 % of control

COc1nc2c(ccn2C2OC(COC(C)=O)C(OC(C)=O)C(OC(C)=O)C2OC(C)=O)c(=O)[nH]1 (stereo unspecified)
inactive: dose: 100.0 mg/kg/injection, schedule: Q01DX001 (ip), vehicle: saline with Tween-80 104 % of control | dose: 200.0 mg/kg/injection, schedule: Q01DX001 (ip), vehicle: saline with Tween-80 100 % of control | dose: 400.0 mg/kg/injection, schedule: Q01DX001 (ip), vehicle: saline with Tween-80 100 % of control

O=C1c2ccccc2C2=Cc3ccccc3C(O)N12 (stereo unspecified)
inactive: [14] 104 % of control | [15] 100 % of control | [16] 100 % of control

Clc1nc(SC2=NCCN2)c2[nH]cnc2n1
inactive: dose: 5.0 mg/kg/injection, schedule: Q01DX009 (ip), vehicle: saline with Tween-80 100 % of control and 92 % of control | dose: 10.0 mg/kg/injection, schedule: Q01DX009 (ip), vehicle: saline with Tween-80 104 % of control and 113 % of control | dose: 20.0 mg/kg/injection, schedule: Q01DX009 (ip), vehicle: saline with Tween-80 105 % of control | dose: 40.0 mg/kg/injection, schedule: Q01DX009 (ip), vehicle: saline with Tween-80 100 % of control

COc1cccc(/C=C2/C(=O)N(c3ccccc3)N=C2C)c1OC
inactive: [5] 101 % of control | [6] 100 % of control | [7] 110 % of control

CC(C)CC(=O)CC(C)(O)CCC(=O)c1ccoc1 (stereo unspecified)
inactive: dose: 25.0 mg/kg/injection, schedule: Q01DX005 (ip), vehicle: saline with Tween-80 98 % of control | [20] 104 % of control | [21] 102 % of control

CC1CCN(CC(O)C(C)(C)Oc2ccc(-c3ccccc3)cc2)CC1 (stereo unspecified)
inactive: [11] 97 % of control | [12] 93 % of control

Clc1ccccc1N=Cc1ccc(C=Nc2ccccc2Cl)cc1
inactive: [22] 99 % of control | [23] 92 % of control

CC1c2c(cc(OC(=O)c3cccc(S(=O)(=O)F)c3)nc2OC(=O)c2cccc(S(=O)(=O)F)c2)C(=O)N1Cc1ccccc1 (stereo unspecified)
inactive: dose: 6.25 mg/kg/injection, schedule: Q01DX009 (ip), vehicle: Klucel (hydroxypropylcellulose) (HPC) 97 % of control | [22] 88 % of control | [23] 87 % of control

C=CCNC(=S)Nc1sc2c(c1C(=O)OCC)CCCC2
inactive: [8] 93 % of control | [9] 94 % of control | [10] 89 % of control

CCCCN(CCCC)C(=N)c1ccnc2ccccc12
inactive: [17] 95 % of control | [18] 97 % of control | [19] 97 % of control
